Results as given in the supplement of paper PMC10307832.

Key:
Test in all cases: relative viability (nuclei count vs DMSO), 5 days (fraction); higher = more cells survive
A-427 = tested on: A-427
Procedure, shortened: (§1)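 Relative viability was taken as the ratio of nuclei in treated wells to nuclei in vehicle wells. Lung cancer cell lines in 1536-well plates received compounds by pin tool one day after seeding, either one drug alone or a fixed anchor-drug dose plus five library-drug doses (not always all listed) in √10 steps. Nuclei were counted on 4× images after 5 days of treatment, and values are medians of duplicate plates.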

CAL-12T = tested on: CAL-12T
Procedure, shortened: as §1

COR-L 105 = tested on: COR-L 105
Procedure, shortened: as §1

COR-L23 = tested on: COR-L23
Procedure, shortened: as §1

EPLC-272H = tested on: EPLC-272H
Procedure, shortened: as §1

HOP-62 = tested on: HOP-62
Procedure, shortened: as §1

LCLC-103H = tested on: LCLC-103H
Procedure, shortened: as §1

LXF-289 = tested on: LXF-289
Procedure, shortened: as §1

NCI-H1395 = tested on: NCI-H1395
Procedure, shortened: as §1

NCI-H1651 = tested on: NCI-H1651
Procedure, shortened: as §1

NCI-H1975 = tested on: NCI-H1975
Procedure, shortened: as §1

NCI-H1993 = tested on: NCI-H1993
Procedure, shortened: as §1

NCI-H2023 = tested on: NCI-H2023
Procedure, shortened: as §1

NCI-H2085 = tested on: NCI-H2085
Procedure, shortened: as §1

NCI-H2087 = tested on: NCI-H2087
Procedure, shortened: as §1

NCI-H2170 = tested on: NCI-H2170
Procedure, shortened: as §1

NCI-H3122 = tested on: NCI-H3122
Procedure, shortened: as §1

NCI-H596 = tested on: NCI-H596
Procedure, shortened: as §1

NCI-H647 = tested on: NCI-H647
Procedure, shortened: as §1

NCI-H650 = tested on: NCI-H650
Procedure, shortened: as §1

PC-14 = tested on: PC-14
Procedure, shortened: as §1

RERF-LC-KJ = tested on: RERF-LC-KJ
Procedure, shortened: as §1

SK-MES-1 = tested on: SK-MES-1
Procedure, shortened: as §1

## Cc1cnc(-c2cnc(NCCNc3ccc(C#N)cn3)nc2-c2ccc(Cl)cc2Cl)[nH]1 + CS(=O)(=O)N1CCN(Cc2cc3nc(-c4cccc5[nH]ncc45)nc(N4CCOCC4)c3s2)CC1 [Pictilisib] (partner 1 µM)
A-427; first compound 0.08 µM
  relative viability: 0.758
A-427; first compound 0.253 µM
  relative viability: 0.705
A-427; first compound 0.8 µM
  relative viability: 0.696
A-427; first compound 2.53 µM
  relative viability: 0.619
CAL-12T; first compound 0.253 µM
  relative viability: 0.52
CAL-12T; first compound 2.53 µM
  relative viability: 0.53
COR-L 105; first compound 0.08 µM
  relative viability: 0.344
COR-L 105; first compound 0.253 µM
  relative viability: 0.468
COR-L 105; first compound 0.8 µM
  relative viability: 0.176
COR-L 105; first compound 2.53 µM
  relative viability: 0.385
COR-L23; first compound 0.08 µM
  relative viability: 0.901
COR-L23; first compound 0.253 µM
  relative viability: 0.683
COR-L23; first compound 0.8 µM
  relative viability: 0.944
COR-L23; first compound 2.53 µM
  relative viability: 0.755
EPLC-272H; first compound 0.08 µM
  relative viability: 0.337
EPLC-272H; first compound 0.253 µM
  relative viability: 0.325
EPLC-272H; first compound 0.8 µM
  relative viability: 0.316
EPLC-272H; first compound 2.53 µM
  relative viability: 0.358
HOP-62; first compound 0.08 µM
  relative viability: 0.777
HOP-62; first compound 0.253 µM
  relative viability: 0.688
HOP-62; first compound 0.8 µM
  relative viability: 0.725
HOP-62; first compound 2.53 µM
  relative viability: 0.647
LCLC-103H; first compound 0.08 µM
  relative viability: 0.675
LCLC-103H; first compound 0.253 µM
  relative viability: 0.542
LCLC-103H; first compound 0.8 µM
  relative viability: 0.696
LCLC-103H; first compound 2.53 µM
  relative viability: 0.619
LXF-289; first compound 0.08 µM
  relative viability: 0.841
LXF-289; first compound 0.253 µM
  relative viability: 0.745
LXF-289; first compound 0.8 µM
  relative viability: 0.845
LXF-289; first compound 2.53 µM
  relative viability: 0.877
NCI-H1395; first compound 0.08 µM
  relative viability: 0.759
NCI-H1395; first compound 0.253 µM
  relative viability: 0.585
NCI-H1395; first compound 0.8 µM
  relative viability: 0.601
NCI-H1395; first compound 2.53 µM
  relative viability: 0.65
NCI-H1651; first compound 0.08 µM
  relative viability: 0.67
NCI-H1651; first compound 0.253 µM
  relative viability: 0.485
NCI-H1651; first compound 0.8 µM
  relative viability: 0.524
NCI-H1651; first compound 2.53 µM
  relative viability: 0.686
NCI-H1975; first compound 0.08 µM
  relative viability: 0.328
NCI-H1975; first compound 0.253 µM
  relative viability: 0.297
NCI-H1975; first compound 0.8 µM
  relative viability: 0.299
NCI-H1975; first compound 2.53 µM
  relative viability: 0.338
NCI-H1993; first compound 0.08 µM
  relative viability: 0.92
NCI-H1993; first compound 0.253 µM
  relative viability: 0.911
NCI-H1993; first compound 0.8 µM
  relative viability: 0.87
NCI-H1993; first compound 2.53 µM
  relative viability: 0.806
NCI-H2023; first compound 0.08 µM
  relative viability: 0.334
NCI-H2023; first compound 0.253 µM
  relative viability: 0.271
NCI-H2023; first compound 0.8 µM
  relative viability: 0.307
NCI-H2023; first compound 2.53 µM
  relative viability: 0.813
NCI-H2085; first compound 0.08 µM
  relative viability: 0.551
NCI-H2085; first compound 0.253 µM
  relative viability: 0.517
NCI-H2085; first compound 0.8 µM
  relative viability: 0.455
NCI-H2085; first compound 2.53 µM
  relative viability: 0.43
NCI-H2087; first compound 0.08 µM
  relative viability: 0.853
NCI-H2087; first compound 0.253 µM
  relative viability: 0.754
NCI-H2087; first compound 0.8 µM
  relative viability: 0.975
NCI-H2087; first compound 2.53 µM
  relative viability: 1.06
NCI-H2170; first compound 0.08 µM
  relative viability: 0.29
NCI-H2170; first compound 0.253 µM
  relative viability: 0.307
NCI-H2170; first compound 0.8 µM
  relative viability: 0.261
NCI-H2170; first compound 2.53 µM
  relative viability: 0.318
NCI-H3122; first compound 0.08 µM
  relative viability: 0.65
NCI-H3122; first compound 0.253 µM
  relative viability: 0.64
NCI-H3122; first compound 0.8 µM
  relative viability: 0.646
NCI-H3122; first compound 2.53 µM
  relative viability: 0.763
NCI-H596; first compound 0.08 µM
  relative viability: 0.424
NCI-H596; first compound 0.253 µM
  relative viability: 0.397
NCI-H596; first compound 0.8 µM
  relative viability: 0.391
NCI-H596; first compound 2.53 µM
  relative viability: 0.435
NCI-H647; first compound 0.08 µM
  relative viability: 0.451
NCI-H647; first compound 0.253 µM
  relative viability: 0.45
NCI-H647; first compound 0.8 µM
  relative viability: 0.366
NCI-H647; first compound 2.53 µM
  relative viability: 0.458
NCI-H650; first compound 0.08 µM
  relative viability: 0.936
NCI-H650; first compound 0.253 µM
  relative viability: 1.03
NCI-H650; first compound 0.8 µM
  relative viability: 0.916
NCI-H650; first compound 2.53 µM
  relative viability: 0.873
PC-14; first compound 0.08 µM
  relative viability: 0.662
PC-14; first compound 0.253 µM
  relative viability: 0.775
PC-14; first compound 0.8 µM
  relative viability: 0.55
PC-14; first compound 2.53 µM
  relative viability: 0.645
RERF-LC-KJ; first compound 0.08 µM
  relative viability: 0.662
RERF-LC-KJ; first compound 0.253 µM
  relative viability: 0.496
RERF-LC-KJ; first compound 0.8 µM
  relative viability: 0.497
RERF-LC-KJ; first compound 2.53 µM
  relative viability: 0.548
SK-MES-1; first compound 0.08 µM
  relative viability: 0.406
SK-MES-1; first compound 0.253 µM
  relative viability: 0.378
SK-MES-1; first compound 0.8 µM
  relative viability: 0.38
SK-MES-1; first compound 2.53 µM
  relative viability: 0.403
